Results reported in article PMC12948427 (The Journal of Clinical Investigation, 2025).
pKd: −log10 of the molar value. Where “and” joins values, the source holds several entries; their conditions need not be identical. Identical values can stand only once. Like-named read-outs stand apart in the source and are kept apart here. Ends that are not written are not given here.

Legend:
in vitro [1] = settings: mouse, 17Cl-1 cells, cell viability, Figure S7E
[2] = target: hHGS 1-390-6 × HIS protein (Homo sapiens, UniProt O14964); assay: SPR binding of immobilized M peptides to HGS; settings: without RTB; read-out: KD, binding affinity of peptide with HGS (SPR)
in vitro [3] = settings: human, Calu-3 cells, cell viability, Figure S7G
in vitro [4] = settings: Vero E6 cells, cell viability, Figure S7F

hHGS 1-390-6 × HIS protein, sequence (O14964 1-390): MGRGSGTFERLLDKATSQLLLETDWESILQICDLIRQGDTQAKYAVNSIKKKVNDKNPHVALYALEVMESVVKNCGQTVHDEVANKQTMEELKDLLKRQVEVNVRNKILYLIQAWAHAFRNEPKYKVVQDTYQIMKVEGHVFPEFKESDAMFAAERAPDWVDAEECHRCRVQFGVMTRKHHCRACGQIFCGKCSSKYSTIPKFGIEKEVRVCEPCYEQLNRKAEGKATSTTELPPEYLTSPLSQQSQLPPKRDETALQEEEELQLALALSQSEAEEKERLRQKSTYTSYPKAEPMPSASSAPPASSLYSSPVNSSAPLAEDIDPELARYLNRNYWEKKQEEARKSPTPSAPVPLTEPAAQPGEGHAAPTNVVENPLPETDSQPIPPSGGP

Sequence: GRKKRRQRRRPPQESELVIGAVILR [M146]
- cytotoxicity (CCK-8) (Calu-3 cells; Calu-3, up to 10^4 nM): no significant cytotoxicity
- cell viability, Figure S7G (Calu-3 cells; peptide concentration 2000): 95.941 and 95.203
- cell viability, Figure S7G (Calu-3 cells; peptide concentration 10000): 97.048 and 96.679
- cell viability, Figure S7G (Calu-3 cells; peptide concentration 20000): 96.679
- cell viability, Figure S7G (Calu-3 cells; peptide concentration 40000): 96.31 and 87.4539
- cell viability, Figure S7G (Calu-3 cells; peptide concentration 80000): 94.0959 and 97.048
- cell viability, Figure S7G (Calu-3 cells; peptide concentration 120000): 77.1218 and 97.786 and 96.31
- cell viability, Figure S7G (Calu-3 cells; peptide concentration 160000): 66.0517 and 74.9077
- cell viability, Figure S7G (Calu-3 cells; peptide concentration 200000): 81.9188 and 68.2657
- cell viability, Figure S7G (Calu-3 cells; peptide concentration 400000): 25.2399 and 16.7897
- cell viability, Figure S7G (Calu-3 cells; peptide concentration 800000): 14.4649
- cell viability, Figure S7G (Calu-3 cells; peptide concentration 1200000): 11.5867 and 10.5535
- cell viability, Figure S7G (Calu-3 cells; peptide concentration 1600000): 13.7638 and 14.6125
- viability at 24 h (in vitro [1]; peptide concentration 1000): 99.7%
- viability at 24 h (in vitro [1]; peptide concentration 4000): 103%
- viability at 24 h (in vitro [1]; peptide concentration 8000): 95.8%
- viability at 24 h (in vitro [1]; peptide concentration 10000): 107%
- viability at 24 h (in vitro [1]; peptide concentration 20000): 92.7%
- viability at 24 h (in vitro [1]; peptide concentration 40000): 91%
- viability at 24 h (in vitro [1]; peptide concentration 80000): 71.4%
- viability at 24 h (in vitro [1]; peptide concentration 100000): 84.5%
- viability at 24 h (in vitro [1]; peptide concentration 200000): 84%
- cytotoxicity (CCK-8) (Vero E6 cells; Vero E6, up to 10^4 nM): no significant cytotoxicity
- cell viability, Figure S7F (Vero E6 cells; peptide concentration 2000): 100.769 and 98.8462
- cell viability, Figure S7F (Vero E6 cells; peptide concentration 10000): 100.769 and 99.2308
- cell viability, Figure S7F (Vero E6 cells; peptide concentration 20000): 100 and 96.5385
- cell viability, Figure S7F (Vero E6 cells; peptide concentration 40000): 96.9231 and 96.1538
- cell viability, Figure S7F (Vero E6 cells; peptide concentration 80000): 86.9231
- cell viability, Figure S7F (Vero E6 cells; peptide concentration 120000): 92.3077
- cell viability, Figure S7F (Vero E6 cells; peptide concentration 160000): 75.7692 and 76.9231
- cell viability, Figure S7F (Vero E6 cells; peptide concentration 200000): 78.4615 and 78.8462
- cell viability, Figure S7F (Vero E6 cells; peptide concentration 400000): 21.7308 and 21.1538
- cell viability, Figure S7F (Vero E6 cells; peptide concentration 800000): 13.7308 and 14.2308
- cell viability, Figure S7F (Vero E6 cells; peptide concentration 1200000): 13.4615 and 14.1154
- cell viability, Figure S7F (Vero E6 cells; peptide concentration 1600000): 13.0385 and 11.8077
- cytotoxicity (CCK-8) (17Cl-1 cells; 17Cl-1, up to 10^4 nM): no significant cytotoxicity
- cell viability, Figure S7E (17Cl-1 cells; peptide concentration 1000): 99.2599 and 92.2943
- cell viability, Figure S7E (17Cl-1 cells; peptide concentration 4000): 104.049 and 106.226
- cell viability, Figure S7E (17Cl-1 cells; peptide concentration 8000): 108.838
- cell viability, Figure S7E (17Cl-1 cells; peptide concentration 10000): 97.5185 and 100.566
- cell viability, Figure S7E (17Cl-1 cells; peptide concentration 20000): 112.32 and 104.049
- cell viability, Figure S7E (17Cl-1 cells; peptide concentration 40000): 96.2125 and 97.0832
- cell viability, Figure S7E (17Cl-1 cells; peptide concentration 60000): 82.2812 and 103.613 and 98.3892
- cell viability, Figure S7E (17Cl-1 cells; peptide concentration 80000): 90.5529
- cell viability, Figure S7E (17Cl-1 cells; peptide concentration 100000): 97.0832 and 87.5054
- cell viability, Figure S7E (17Cl-1 cells; peptide concentration 200000): 89.6822 and 71.8328
- pKd [2]: 8.24
- viability at 24 h (in vitro [3]; peptide concentration 2000): 83.8%
- viability at 24 h (in vitro [3]; peptide concentration 10000): 95.2%
- viability at 24 h (in vitro [3]; peptide concentration 20000): 94.8%
- viability at 24 h (in vitro [3]; peptide concentration 40000): 93.7%
- viability at 24 h (in vitro [3]; peptide concentration 80000): 92.6%
- viability at 24 h (in vitro [3]; peptide concentration 160000): 85.6%
- viability at 24 h (in vitro [3]; peptide concentration 200000): 83%
- viability at 24 h (in vitro [3]; peptide concentration 400000): 24.4%
- viability at 24 h (in vitro [3]; peptide concentration 800000): 13%
- viability at 24 h (in vitro [3]; peptide concentration 1200000): 11%
- viability at 24 h (in vitro [3]; peptide concentration 1600000): 11.7%
- viability at 24 h (in vitro [4]; peptide concentration 2000): 98.5%
- viability at 24 h (in vitro [4]; peptide concentration 10000): 97.7%
- viability at 24 h (in vitro [4]; peptide concentration 20000): 94.2%
- viability at 24 h (in vitro [4]; peptide concentration 40000): 93.1%
- viability at 24 h (in vitro [4]; peptide concentration 80000): 91.9%
- viability at 24 h (in vitro [4]; peptide concentration 120000): 88.8%
- viability at 24 h (in vitro [4]; peptide concentration 160000): 80.8%
- viability at 24 h (in vitro [4]; peptide concentration 200000): 70.8%
- viability at 24 h (in vitro [4]; peptide concentration 400000): 20%
- viability at 24 h (in vitro [4]; peptide concentration 800000): 12%
- viability at 24 h (in vitro [4]; peptide concentration 1200000): 11.4%
- viability at 24 h (in vitro [4]; peptide concentration 1600000): 14.5%
